Results from ChEMBL document CHEMBL3301361, “Experimental in vitro DMPK and physicochemical data on a set of publicly disclosed compounds”.
In brackets after ≈: the same amount, converted by molar mass.

Key:
[1] = physchem; settings: octan-1-ol/water
[2] = in vitro; settings: human
[3] = physchem; settings: pH 7.4 buffer
[4] = in vitro; settings: human, plasma

Structure (SMILES)	logD ([1]; pH 7.4, LogD7.4)	microsomal CLint ([2]; liver microsomes) [µL/min/mg]	further results
CC(=O)c1ccc(N2CCN(S(=O)(=O)C[C@]34CC[C@H](CC3=O)C4(C)C)CC2)nc1	2.21	> 150	
CC[C@H](CO)Nc1nc(SCc2cccc(F)c2F)nc2nc(NC(C)C)sc12		42	
O=C(O)COc1ccc(C(F)(F)F)cc1-c1ccccc1-c1ccccc1			microsomal CLint ([2]; microsomes): < 3 µL/min/mg
O=C(NC[C@@H](O)CN1CCC(Oc2ccc(Cl)c(Cl)c2)CC1)n1c(=O)[nH]c2ccccc21	4.46		microsomal CLint ([2]; microsomes): < 3 µL/min/mg
Cc1ccc2c(c1)c(-c1ccnc3ccc(C(F)(F)F)cc13)c(C)n2CC(=O)O	1.78	23	
NC(=O)Nc1cc(-c2ccsc2)sc1C(N)=O		45	
O=C(NCC12CC3CC(CC(C3)C1)C2)c1ccccc1Cl	4.05	69	
CCc1nc2c(N)nc3ccccc3c2n1CCCCNS(C)(=O)=O [CPG-52852]	1.24		solubility thermodynamic [3]: 537 µM (≈ 194 µg/mL); fraction unbound at 5 h ([4]; PPB): 0.334
CCCCC(CC)CNC(=O)c1cc(-n2ncc(=O)[nH]c2=O)ccc1Cl (stereo unspecified)	2.41	24	
Cc1c(CC(=O)O)c2cc(F)ccc2n1Cc1nc2ccccc2s1		< 3	
COc1ccc(N(C(=O)c2occc2Cl)C(C(=O)NC[C@@H](C)O)c2ccccc2F)c(OC)c1 (stereo partly specified)			microsomal CLint ([2]; microsomes): 145 µL/min/mg
Nc1nc2nc(SCc3cccc(F)c3F)[nH]c(=O)c2s1	2.5	< 3	
CC(C)C[C@H](NC(=O)N1CCOCC1)C(=O)NCC#N	0.08	< 3	
CCCC1CCCCC(N)=N1 (stereo unspecified)	1.1	< 3	
CCc1nc2c(N)nc3ccccc3c2n1CC(C)(C)O		< 3	
CCO/N=C(\c1ccc(Br)cc1)C1CCN(C2(C)CCN(C(=O)c3c(Cl)cncc3Cl)CC2)CC1	4	4	
CCO[C@@H]1OC(=O)C[C@@H]1NC(=O)[C@@H]1CCCN2C(=O)CC[C@H](NC(=O)c3nccc4ccccc34)C(=O)N12	1.16	< 3	
CCN(C(=O)Cc1ccc(S(C)(=O)=O)cc1)C1CCN(CC[C@@H](c2cc(C)cc(C)c2)C2CCN(S(C)(=O)=O)CC2)CC1		> 150	
N#Cc1c(-c2ccccc2)nc(SCc2ccccc2)[nH]c1=O	1.56		microsomal CLint ([2]; microsomes): 6 µL/min/mg
Cc1ccc(C#N)cc1-c1cc(C(F)(F)F)ccc1OCC(=O)O	0.15		microsomal CLint ([2]; microsomes): < 3 µL/min/mg
Cc1ccc(S(=O)(=O)NC(=O)N2CCC(N3CCC(Oc4ccc(F)c(F)c4)CC3)CC2)cc1	0.75	< 3	

Structure (SMILES)	logD ([1]; pH 7.4, LogD7.4)	microsomal CLint ([2]; liver microsomes) [µL/min/mg]	further results
O=C(CC12CC3CC(CC(C3)C1)C2)Nc1ccc2[nH]ncc2c1	4.03	21	
C[C@H](CO)Nc1nc(SCc2cccc(F)c2F)nc2nc(NS(C)(=O)=O)sc12	0.92		solubility thermodynamic [3]: 832 µM (≈ 384 µg/mL); fraction unbound at 5 h ([4]; PPB): 0.0114
Cc1cnc(Oc2ccc(-n3ccnc3)cc2)nc1Oc1ccc2c(c1)OCO2	3.56	< 3	
C[C@H]1CN(Cc2cc(Cl)ccc2OCC(=O)O)CCN1C(=O)Cc1cccc(Cl)c1			logD ([1]; pH 7.4): 0.78; microsomal CLint ([2]; microsomes): < 3 µL/min/mg
c1ccc(Sc2ccc3ccccc3n2)cc1	3.92		microsomal CLint ([2]; microsomes): 61 µL/min/mg
CC1CN(S(=O)(=O)c2ccccc2)CCN1Cc1cc(Cl)ccc1OCC(=O)O (stereo unspecified)	0.69		microsomal CLint ([2]; microsomes): < 3 µL/min/mg
COc1ccccc1CNCCc1cccc(CCNC[C@H](O)c2ccc(O)c3[nH]c(=O)sc23)c1	0.91	56	
Cc1ccc(NC(=O)c2cscn2)cc1-n1cnc2ccc(N3CCN(C)CC3)cc2c1=O		< 3	
N#Cc1cccc(C[C@@H](C(=O)O)N2CCC(CN3CCC(Oc4ccc(Cl)c(Cl)c4)CC3)CC2)c1		< 3	
O=C(NO)C1(CS(=O)(=O)c2ccc(Oc3ccc(Cl)cc3)cc2)CCOCC1 [CTS-1027]			solubility thermodynamic [3]: 126 µM (≈ 53.6 µg/mL); fraction unbound at 5 h ([4]; PPB): 0.02
CCS(=O)(=O)Nc1cccc2c1c(Oc1ccc(Cl)cc1)c(C)n2CC(=O)O			microsomal CLint ([2]; microsomes): < 3 µL/min/mg
O=C(O)c1cccnc1N1CCC(CN2CCC(Oc3ccc(Cl)c(Cl)c3)CC2)CC1			microsomal CLint ([2]; microsomes): 4 µL/min/mg
CC(=O)Nc1ccc2c(c1)c(Sc1ccc(Cl)cc1)c(C)n2CC(=O)O		36	
O=C(O)COc1ccc(Cl)cc1CN1CCCN(S(=O)(=O)c2ccccc2)CC1			microsomal CLint ([2]; microsomes): < 3 µL/min/mg
CC(=O)Nc1ccc(O)cc1OC[C@@H](O)CN1CCC2(CC1)Cc1cc(Cl)ccc1O2		8	
C[C@@H]1CN(Cc2cc(Cl)ccc2OCC(=O)O)C[C@H](C)N1C(=O)Cc1ccccc1			microsomal CLint ([2]; microsomes): < 3 µL/min/mg
Cc1ccc(NC(=O)c2ccno2)cc1-n1cnc2ccc(N3CCN(C)CC3)cc2c1=O		< 3	
N=C(N)c1cc2c(/C=C/c3ccc4c(c3)OCO4)cccc2s1		7	
Cc1ccc2c(c1)c(Sc1ccccc1Cl)c(C)n2CC(=O)O			microsomal CLint ([2]; microsomes): < 3 µL/min/mg
CN(CCOc1ccc(CC2SC(=O)NC2=O)cc1)c1ccccn1 (stereo unspecified) [ROSIGLITAZONE]	2.5		solubility thermodynamic [3]: 28.2 µM (≈ 10.1 µg/mL); fraction unbound at 5 h ([4]; PPB): 0.0026
Cc1ccccc1CCOCCCS(=O)(=O)CCNCCc1ccc(O)c2nc(O)sc12		> 150	

Structure (SMILES)	logD ([1]; pH 7.4, LogD7.4)	microsomal CLint ([2]; liver microsomes) [µL/min/mg]	further results
CCN(CC)Cc1cc(Nc2ccnc3cc(Cl)ccc23)ccc1O [AMODIAQUINE]			microsomal CLint ([2]; microsomes): > 150 µL/min/mg
N=C(N)c1cc2c(OCc3ccccc3)cccc2s1		11	
O=C(O)[C@H](Cc1ccc(Cl)cc1)N1CCC(CN2CCC(Oc3ccc(Cl)c(Cl)c3)CC2)CC1		< 3	
CC(=O)N1CCN(c2ccc(OCC3COC(Cn4ccnc4)(c4ccc(Cl)cc4Cl)O3)cc2)CC1 (stereo unspecified) [KETOCONAZOLE]			solubility thermodynamic [3]: 6.2 µM (≈ 3.29 µg/mL); fraction unbound at 5 h [4]: 0.028
Cc1ccc(NC(=O)c2cccc(N3CCOCC3)c2)cc1NC(=O)c1ccc(OCc2ccccn2)cc1		30.3	
Cc1c(Sc2ccc(Cl)cc2)c2ccc(Cl)cc2n1CC(=O)O		< 3	
COc1cccc(NC(=O)CC23CC4CC(CC(C4)C2)C3)c1C		> 150	
O=C(O)COc1ccc(Br)cc1-c1ccccc1		< 3	
CCS(=O)(=O)c1ccc(-c2cc(C(F)(F)F)ccc2OCC(N)=O)c(C)c1		< 3	
CC(C(=O)O)c1ccc(-c2ccccc2)c(F)c1 (stereo unspecified) [FLURBIPROFEN]		23.5	
CN(C(=O)Cc1ccc(S(N)(=O)=O)cc1)C1CCN(CCC(c2ccccc2)c2ccccc2)CC1		12	
Cc1c(Sc2ccc(Cl)cc2)c2c(C#N)c(Cl)ccc2n1CC(=O)O		4	
Cc1c(Oc2ccc(Cl)cc2)c2cc(F)ccc2n1CC(=O)O			microsomal CLint ([2]; microsomes): < 3 µL/min/mg
CCC(=O)N1CCN(C(=O)c2cc(Cc3n[nH]c(=O)c4ccccc34)ccc2F)CC1	1.22		solubility thermodynamic [3]: 251 µM (≈ 106 µg/mL); fraction unbound at 5 h ([4]; PPB): 0.371
COc1ccc(Sc2c(C)n(CC(=O)O)c3ccc(C)cc23)cc1		< 3	
CC(C)Cn1c(=O)n(C)c(=O)c2c(C(=O)N3CC[C@@H](O)C3)c(Cc3ccnc4ccc(F)cc34)sc21	1.95		solubility thermodynamic [3]: 871 µM (≈ 445 µg/mL); fraction unbound at 5 h ([4]; PPB): 0.46
Cc1ccc(CCNC(=O)c2ccc3sc(CO)nc3c2)cc1			solubility thermodynamic [3]: 16.2 µM (≈ 5.29 µg/mL); fraction unbound at 5 h ([4]; PPB): 0.0293
Cc1c(Sc2ccc(Cl)cc2)c2cccc(Cl)c2n1CC(=O)O		< 3	
CCCCc1nc2c(N)nc3ccccc3c2n1CC(C)(C)O		< 3	
COCC[C@H](Oc1ncnc2c1cnn2-c1ccccc1Cl)C(=O)Nc1ccc(C)cn1	3.6		solubility thermodynamic [3]: 100 µM (≈ 45.3 µg/mL); fraction unbound at 5 h ([4]; PPB): 0.0457
Cc1c(OC2CCN(CC3CCN([C@@H](Cc4ccc(F)cc4)C(=O)O)CC3)CC2)ccc(C#N)c1Cl			microsomal CLint ([2]; microsomes): 5.5 µL/min/mg

Structure (SMILES)	logD ([1]; pH 7.4, LogD7.4)	microsomal CLint ([2]; liver microsomes) [µL/min/mg]	further results
Cc1ccc(CO)cc1N(C)c1ccnc(Nc2cc(N3CCCOCC3)cc(N3CCOCC3)c2)n1	3.3		solubility thermodynamic [3]: 91.2 µM (≈ 46 µg/mL); fraction unbound at 5 h ([4]; PPB): 0.0556
Cc1ccc(NC(=O)c2ccc(C#N)cc2)cc1-n1cnc2ccc(N3CCN(C)CC3)cc2c1=O	2.73		solubility thermodynamic [3]: 32.4 µM (≈ 15.5 µg/mL); fraction unbound at 5 h ([4]; PPB): 0.319
Cc1c(Sc2ccc(Cl)cc2)c2cc(-c3ccccc3)ccc2n1CC(=O)O		16	
C[C@H]1CN(Cc2cc(Cl)ccc2CC(=O)O)CCN1S(=O)(=O)Cc1ccccc1			microsomal CLint ([2]; microsomes): < 3 µL/min/mg
NC(=O)c1sc(-c2ccc(Cl)cc2)cc1N		31	
Cc1c(Sc2ccc(Cl)cc2)c2c(-c3ccccc3)cccc2n1CC(=O)O		< 3	
CCN(C(=O)Cc1ccc(S(C)(=O)=O)cc1)C1CCN(CCC(c2ccccc2)C2CCN(Cc3ccccc3)CC2)CC1 (stereo unspecified)		> 150	
Nc1nc(-c2ccccn2)nc(N)c1Cc1ccc(Cl)cc1Cl		37.1	
Cc1ccc2c(N)c(C(N)=O)sc2n1		13	
Cc1cc(Nc2cc(N3CCOCC3)nc(N[C@@H](C)c3ncc(F)cn3)n2)[nH]n1	1.91		fraction unbound at 5 h ([4]; PPB): 0.54
COc1cc(Nc2nc(N[C@@H](C)c3ncc(F)cn3)nc(N3CCOCC3)c2F)[nH]n1	2.64		fraction unbound at 5 h ([4]; PPB): 0.253
O=C(CCS(=O)(=O)c1ccc(Br)cc1)NCc1ccc(F)cc1	3.1		fraction unbound at 5 h ([4]; PPB): 0.0428
Cc1cn([C@H]2CCCN(S(=O)(=O)c3ccc(O)c(Oc4ccccc4)c3)C2)c(=O)[nH]c1=O	1.49		fraction unbound at 5 h ([4]; PPB): 0.062
C[C@H](Nc1nc(Nc2ncc(C#N)s2)cc(N2CCOCC2)n1)c1ccc(F)cn1	3.45		fraction unbound at 5 h ([4]; PPB): 0.0594
N#Cc1cnn2c(NC3CC3)cc(-n3ccc4ccc(CO)cc43)nc12	3.09		fraction unbound at 5 h ([4]; PPB): 0.0191
CC(C)Oc1cc(-n2cnc3cnc(N[C@@H](C)c4ncc(F)cn4)nc32)n[nH]1	2.41		fraction unbound at 5 h ([4]; PPB): 0.309
Cc1c(Cl)ccc(OC2CCN(C[C@H](O)CNC(=O)c3c[nH]c(=O)c4ccc(S(C)(=O)=O)cc34)CC2)c1Cl		< 3	
CN(C)S(=O)(=O)c1ccc2c(c1)N(CCN1CCC(NCc3ccc4c(n3)NC(=O)CO4)CC1)C(=O)CO2			fraction unbound at 5 h [4]: 0.0928; logD ([1]; pH 7.4): 0.15
CN[C@@H](C)C(=O)N[C@H](C(=O)N[C@H]1CCCN(CCc2ccccc2F)C1)C1CCCCC1	2.51		fraction unbound at 5 h ([4]; PPB): 0.262
CC[C@@H](c1ccc(C(=O)O)c(Oc2cccc(Cl)c2)c1)N1CCC[C@H](n2cc(C)c(=O)[nH]c2=O)C1	0.22		fraction unbound at 5 h ([4]; PPB): 0.0383
